Where two headings read alike, the source gives them in different places.
Experiments:
[1] = target: T1, purified recombinant human Aggrecanase-1 (rAgg1) (Homo sapiens, UniProt O75173); experiment: In vitro fluorescence screen for Aggrecanase-1 inhibitors; assay type: biochemical; set-up: Agg1 % at concentration: scale not given here; settings: for IC50: read-out: Agg1 IC50
T1 sequence (O75173 213-837): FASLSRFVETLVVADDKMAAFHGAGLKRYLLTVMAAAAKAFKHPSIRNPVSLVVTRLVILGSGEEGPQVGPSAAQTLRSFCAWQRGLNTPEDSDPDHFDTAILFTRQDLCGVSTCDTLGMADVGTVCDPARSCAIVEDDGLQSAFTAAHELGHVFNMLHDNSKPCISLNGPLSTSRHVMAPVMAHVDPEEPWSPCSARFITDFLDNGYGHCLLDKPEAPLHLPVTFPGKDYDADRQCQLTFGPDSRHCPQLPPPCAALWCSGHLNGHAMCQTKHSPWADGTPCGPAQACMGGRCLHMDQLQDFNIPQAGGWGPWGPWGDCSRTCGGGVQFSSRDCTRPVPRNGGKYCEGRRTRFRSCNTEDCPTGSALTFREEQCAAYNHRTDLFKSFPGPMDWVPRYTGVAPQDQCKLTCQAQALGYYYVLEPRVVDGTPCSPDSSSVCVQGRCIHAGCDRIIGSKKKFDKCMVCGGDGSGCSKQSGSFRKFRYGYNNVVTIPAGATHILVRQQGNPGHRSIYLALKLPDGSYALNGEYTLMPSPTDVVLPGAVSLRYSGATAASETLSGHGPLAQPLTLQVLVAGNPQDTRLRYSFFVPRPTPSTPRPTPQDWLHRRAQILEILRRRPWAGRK

[2] = target: T2, purified recombinant human Aggrecanase-2 (Ag2t-Phe628-Strep) (Homo sapiens, UniProt Q9UNA0); experiment: In vitro fluorescence screen for Aggrecanase-2 inhibitors; assay type: biochemical; settings: for IC50: read-out: Agg 2 IC50; for inhibition at 11 µM: at 11000 (nM), read-out: Agg 2 % at concentration
T2 construct: the form used is denoted as Ag2t-Phe628-Strep (MW=41,737)
T2 sequence (Q9UNA0 262-628): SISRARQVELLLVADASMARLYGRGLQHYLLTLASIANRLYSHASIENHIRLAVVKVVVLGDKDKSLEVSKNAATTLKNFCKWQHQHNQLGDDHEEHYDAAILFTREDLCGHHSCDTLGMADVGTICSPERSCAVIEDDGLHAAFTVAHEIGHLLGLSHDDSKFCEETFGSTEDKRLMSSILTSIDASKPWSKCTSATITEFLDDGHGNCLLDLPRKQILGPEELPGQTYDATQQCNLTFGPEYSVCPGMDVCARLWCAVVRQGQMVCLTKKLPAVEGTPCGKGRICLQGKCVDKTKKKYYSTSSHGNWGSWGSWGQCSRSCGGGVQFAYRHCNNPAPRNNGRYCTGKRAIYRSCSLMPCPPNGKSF

Compound	IC50 ([1]; Table 2) [nM]	IC50 ([2]; Table 2) [nM]	IC50 ([1]; Table 3) [nM]	IC50 ([2]; Table 3) [nM]	other results
C#Cc1ccc(-c2ccc(CCNC(=O)[C@H](CCC(=O)O)NC(=O)c3ccc(-c4ccccc4)cc3)cc2)cc1 [Example 10F, N^2-(biphenyl-4-ylcarbonyl)-N^1-[2-(4′-ethynylbiphenyl-4-yl)ethyl]-L-α-glutamine]					IC50 ([1]; Table 1): 130 nM; IC50 ([2]; Table 1): > 30000 nM
O=C(O)CC[C@H](NC(=O)c1ccc(-c2ccccc2)cc1)C(=O)NCCc1ccc(-c2ccccn2)cc1 [Example 10G, N^2-(biphenyl-4-ylcarbonyl)-N^1-[2-(4-pyridin-2-ylphenyl)ethyl]-L-α-glutamine]					IC50 ([1]; Table 1): 1000 nM; IC50 ([2]; Table 1): 4400 nM
O=C(O)CC[C@H](NC(=O)c1ccc(-c2ccccc2)cc1)C(=O)NCCc1cccc(-c2ccc(C(F)(F)F)cc2)c1 [Example 10K, N^2-(biphenyl-4-ylcarbonyl)-N^1-{2-[4′-(trifluoromethyl)biphenyl-3-yl]ethyl}-L-α-glutamine]					IC50 ([1]; Table 1): 380 nM; IC50 ([2]; Table 1): > 100000 nM
COc1ccc(-c2cccc(CCNC(=O)[C@H](CCC(=O)O)NC(=O)c3ccc(-c4ccccc4)cc3)c2)cc1 [Example 10L, N^2-(biphenyl-4-ylcarbonyl)-N^1-[2-(4′-methoxybiphenyl-3-yl)ethyl]-L-α-glutamine]					IC50 ([1]; Table 1): 130 nM; IC50 ([2]; Table 1): 2000 nM
O=C(O)CC[C@H](NC(=O)c1ccc(-c2ccc3ccccc3c2)cc1)C(=O)NCc1ccccc1 [Example 12F, N-benzyl-N^2-[4-(2-naphthyl)benzoyl]-L-α-glutamine]	~3000	3000 to 8000			
O=C(O)CC[C@H](NC(=O)c1ccc(C#Cc2ccccc2)cc1)C(=O)NCc1ccccc1 [Example 12G, N-benzyl-N^2-[4-(phenylethynyl)benzoyl]-L-α-glutamine]	> 25000	11700			
O=C(O)CC[C@H](NC(=O)c1ccc(C#CC2(O)c3ccccc3-c3ccccc32)cc1)C(=O)NCc1ccccc1 [Example 12H, N-benzyl-N^2-{4-[(9-hydroxy-9H-fluoren-9-yl)ethynyl]benzoyl}-L-α-glutamine]	1200	1630			
O=C(O)CC[C@H](NC(=O)c1ccc(/C=C/C(=O)c2ccccc2)cc1)C(=O)NCc1ccccc1 [Example 12I, N-benzyl-N^2-{4-[(1E)-3-oxo-3-phenylprop-1-en-1-yl]benzoyl}-L-α-glutamine]	> 25000	> 20000			
Nc1cccc(C#Cc2ccc(C(=O)N[C@@H](CCC(=O)O)C(=O)NCc3ccccc3)cc2)c1 [Example 12J, N^2-{4-[(3-aminophenyl)ethynyl]benzoyl}-N-benzyl-L-α-glutamine]	~8000	~22000			
O=C(O)CC[C@H](NC(=O)c1ccc(C#CC(O)(c2ccccc2)c2ccccc2)cc1)C(=O)NCc1ccccc1 [Example 12K, N-benzyl-N^2-[4-(3-hydroxy-3,3-diphenylprop-1-yn-1-yl)benzoyl]-L-α-glutamine]	~25000	> 22000			
COc1cccc(C#Cc2ccc(C(=O)N[C@@H](CCC(=O)O)C(=O)NCc3ccccc3)cc2)c1 [Example 12L, N-benzyl-N^2-{4-[(3-methoxyphenyl)ethynyl]benzoyl}-L-α-glutamine]	~22000	> 22000			
CCc1cccc(OCc2ccc(-c3ccc(C(=O)N[C@@H](CCC(=O)O)C(=O)NC(C)(C)Cc4ccccc4)cc3)cc2)c1 [Example 15AA, N-(1,1-dimethyl-2-phenylethyl)-N^2-({4′-[(3-ethylphenoxy)methyl]biphenyl-4-yl}carbonyl)-L-α-glutamine]	44	327			
COc1cccc(OCc2ccc(-c3ccc(C(=O)N[C@@H](CCC(=O)O)C(=O)NC(C)(C)Cc4ccccc4)cc3)cc2)c1 [Example 15BB, N-(1,1-dimethyl-2-phenylethyl)-N^2-({4′-[(3-methoxyphenoxy)methyl]biphenyl-4-yl}carbonyl)-L-α-glutamine]	53	527			
O=C(O)CC[C@H](NC(=O)c1ccc(-c2ccc(OCc3cccc(F)c3)cc2)cc1)C(=O)NCc1ccccc1 [Example 15I, N-benzyl-N^2-({4′-[(3-fluorobenzyl)oxy]biphenyl-4-yl}carbonyl)-L-α-glutamine]	430	1590			
O=C(O)CC[C@H](NC(=O)c1ccc(-c2ccc(OCc3ccccc3)cc2)cc1)C(=O)NCc1ccccc1 [Example 15J, N-benzyl-N^2-{[4′-(benzyloxy)biphenyl-4-yl]carbonyl}-L-α-glutamine]	510	~3130			
COc1cc(CNC(=O)[C@H](CCC(=O)O)NC(=O)c2ccc(-c3cccc(OCc4ccccc4)c3)cc2)cc(OC)c1OC [Example 15K, N^2-{[3′-(benzyloxy)biphenyl-4-yl]carbonyl}-N-(3,4,5-trimethoxybenzyl)-L-α-glutamine]			< 30	379	
COc1cc(COc2cccc(-c3ccc(C(=O)N[C@@H](CCC(=O)O)C(=O)NCc4cc(OC)c(OC)c(OC)c4)cc3)c2)cc(OC)c1 [Example 15L, N^2-({3′-[(3,5-dimethoxybenzyl)oxy]biphenyl-4-yl}carbonyl)-N-(3,4,5-trimethoxybenzyl)-L-α-glutamine]			47	413	
COc1cccc(COc2cccc(-c3ccc(C(=O)N[C@@H](CCC(=O)O)C(=O)NCc4cc(OC)c(OC)c(OC)c4)cc3)c2)c1 [Example 15M, N^2-({3′-[(3-methoxybenzyl)oxy]biphenyl-4-yl}carbonyl)-N-(3,4,5-trimethoxybenzyl)-L-α-glutamine]			< 30	789	
COc1cc(COc2ccc(-c3ccc(C(=O)N[C@@H](CCC(=O)O)C(=O)NC(C)(C)Cc4ccc(F)cc4)cc3)cc2)cc(OC)c1 [Example 15N, N^2-({4′-[(3,5-dimethoxybenzyl)oxy]biphenyl-4-yl}carbonyl)-N-[2-(4-fluorophenyl)-1,1-dimethylethyl]-L-α-glutamine]			91	103	
CC(C)(Cc1ccccc1)NC(=O)[C@H](CCC(=O)O)NC(=O)c1ccc(-c2ccc(COc3cc(C(F)(F)F)cc(C(F)(F)F)c3)cc2)cc1 [Example 15O, N^2-[(4′-{[3,5-bis(trifluoromethyl)phenoxy]methyl}biphenyl-4-yl)carbonyl]-N-(1,1-dimethyl-2-phenylethyl)-L-α-glutamine]			52	3130	
CC(C)(Cc1ccccc1)NC(=O)[C@H](CCC(=O)O)NC(=O)c1ccc(-c2ccc(COc3ccc4c(c3)OCO4)cc2)cc1 [Example 15P, N^2-({4′-[(1,3-benzodioxol-5-yloxy)methyl]biphenyl-4-yl}carbonyl)-N-(1,1-dimethyl-2-phenylethyl)-L-α-glutamine]			< 30	255	
COc1cc(OC)cc(OCc2ccc(-c3ccc(C(=O)N[C@@H](CCC(=O)O)C(=O)NCc4cccc(C)c4)cc3)cc2)c1 [Example 15Q, N^2-({4′-[(3,5-dimethoxyphenoxy)methyl]biphenyl-4-yl}carbonyl)-N-(3-methylbenzyl)-L-α-glutamine]			158	1940	
COc1cc(OC)cc(OCc2cccc(-c3ccc(C(=O)N[C@@H](CCC(=O)O)C(=O)NCc4cccc(C)c4)cc3)c2)c1 [Example 15R, N^2-({3′-[(3,5-dimethoxyphenoxy)methyl]biphenyl-4-yl}carbonyl)-N-(3-methylbenzyl)-L-α-glutamine]			560		inhibition at 11 µM ([2]; Table 3): 48%
Cc1cccc(CNC(=O)[C@H](CCC(=O)O)NC(=O)c2ccc(-c3cccc(COc4cc(C(F)(F)F)cc(C(F)(F)F)c4)c3)cc2)c1 [Example 15S, N^2-[(3′-{[3,5-bis(trifluoromethyl)phenoxy]methyl}biphenyl-4-yl)carbonyl]-N-(3-methylbenzyl)-L-α-glutamine]					Agg1 % at concentration ([1]; Table 3, at 1850 (nM)): 30%; Agg 2 % at concentration ([2]; Table 3, at 33000 (nM)): 41%
O=C(O)CC[C@H](NC(=O)c1ccc(-c2ccc(OCc3cccc(-c4ccccc4)c3)cc2)cc1)C(=O)NCc1ccccc1 [Example 15U, N-benzyl-N^2-{[4′-(biphenyl-3-ylmethoxy)biphenyl-4-yl]carbonyl}-L-α-glutamine]				600	Agg1 % at concentration ([1]; Table 3, at 100 (nM)): 53%; Agg1 % at concentration ([1]; Table 3, at 1000 (nM)): 53%; inhibition at 11 µM ([2]; Table 3): 30%

Source: patent US7998965B2, “Glutamate aggrecanase inhibitors” (Wyeth LLC, priority 2005, dated 2011)
